Measured values reported in paper PMC11859184, “Synthesis and Evaluation of ^68Ga- and ^177Lu-Labeled [diF-Pro^14]Bombesin(6−14) Analogs for Detection and Radioligand Therapy of Gastrin-Releasing Peptide Receptor-Expressing Cancer” (Pharmaceuticals, 2025).
Like-named read-outs stand apart in the source and are kept apart here.

Assay: Ex vivo biodistribution of 177Lu-labeled ligands in PC-3 tumor-bearing mice
Conditions: mouse; for tissue to tissue ratio at 1 h / tissue uptake at 1 h: 1 h pi; for tissue to tissue ratio at 4 h / tissue uptake at 4 h: 4 h pi; for tissue to tissue ratio at 24 h / tissue uptake at 24 h: 24 h pi; for tissue to tissue ratio at 120 h / tissue uptake at 120 h: 120 h pi; for tissue uptake at 1 h / tissue uptake at 4 h / tissue uptake at 24 h / tissue uptake at 72 h / tissue uptake at 120 h: intravenous
Procedure: SPECT/CT imaging was conducted using an MI Labs (Houten, The Netherlands) U-SPECT-II/CT scanner with a custom-made ultra-high sensitivity big mouse collimator (2 mm pinhole size) following published procedure. The experiments were obtained in accordance with the same protocol established in the PET/CT imaging and ex vivo biodistributions section. The mice were used for SPECT/CT imaging and ex vivo biodistributions studies once the tumors reached a diameter of 5–8 mm. PC-3 tumor-bearing mice were sedated (2.5% isoflurane in O2) and injected with 31.4–36.9 MBq of the ^177Lu-labeled ligand through a lateral caudal tail vein. The mouse was imaged at 1, 4, 24, 72, and 120 h pi. At each time point, a 5 min CT scan was performed with 615 μA and 60 kV parameters for localization and attenuation, followed by two 30 min static SPECT scans in list mode with an energy window centered around 208 keV. The U-SPECT II software was used to reconstruct data, and the images were decay corrected to the time of injection with PMOD v 3.402 (PMOD Technologies GmbH, Fallanden, Switzerland).
For ex vivo biodistribution studies, the mice were injected with ~3–5 MBq of the ^177Lu-labeled ligand (n = 5). At 1, 4, 24, 72, and 120 h post-injection, the mice were anesthetized with 2% isoflurane, euthanized by CO2 inhalation, and the tissues/organs of interest were […] for radioactivity counting. The blocking study was performed at 1 h pi via co-injection of the ^177Lu-labeled ligand with 100 μg of [D-Phe^6,Leu-NHEt^13,des-Met^14]Bombesin(6–14).

[1] = male, NOD.Cg-Rag1^tm1Mom Il2rg^tm1Wjl/SzJ (NRG), tumor/blood, iv, total radioactivity, n = 5, read-out: Tumor/blood uptake ratio
[2] = male, NOD.Cg-Rag1^tm1Mom Il2rg^tm1Wjl/SzJ (NRG), tumor/kidney, iv, total radioactivity, n = 5, read-out: Tumor/kidney uptake ratio
[3] = male, NOD.Cg-Rag1^tm1Mom Il2rg^tm1Wjl/SzJ (NRG), tumor/muscle, iv, total radioactivity, n = 5, read-out: Tumor/muscle uptake ratio
[4] = male, NOD.Cg-Rag1^tm1Mom Il2rg^tm1Wjl/SzJ (NRG), tumor/pancreas, iv, total radioactivity, n = 5, read-out: Tumor/pancreas uptake ratio
[5] = PC-3 tumor, n = 5, read-out: PC-3 tumor uptake
[6] = adrenal glands, n = 5, read-out: Adrenal glands uptake
[7] = blood, n = 5, read-out: Blood uptake
[8] = bone, n = 5, read-out: Bone uptake
[9] = brain, n = 5, read-out: Brain uptake
[10] = fat, n = 5, read-out: Fat uptake
[11] = heart, n = 5, read-out: Heart uptake

CC(C)C[C@H](NC(=O)[C@H](Cc1cnc[nH]1)N(C)C(=O)CNC(=O)[C@@H](NC(=O)[C@H](C)NC(=O)[C@H](Cc1c[nH]c2ccccc12)NC(=O)[C@H](CCC(N)=O)NC(=O)[C@@H](Cc1ccccc1)NC(=O)CN1CCC(NC(=O)CN2CCN(CC(=O)O)CCN(CC(=O)O)CCN(CC(=O)O)CC2)CC1)C(C)(C)C)C(=O)N1CC(F)(F)C[C@H]1C(N)=O [[^177Lu]Lu-LW02060, metal not drawn]
tissue uptake (male, NOD.Cg-Rag1^tm1Mom Il2rg^tm1Wjl/SzJ (NRG), iv, total radioactivity, all time points, read-out: uptake in all other collected organs/tissues (other than tumor, pancreas, kidney)): < 1 %ID/g | tissue to tissue ratio at 1 h (male, NOD.Cg-Rag1^tm1Mom Il2rg^tm1Wjl/SzJ (NRG), tumor/blood, iv, total radioactivity, blocked (100 µg GRPR antagonist co-injected), read-out: Tumor/blood uptake ratio): 6.37 ± 1.92 | tissue to tissue ratio at 1 h [1]: 16.1 ± 2.2 | tissue to tissue ratio at 4 h [1]: 144 ± 33.5 | tissue to tissue ratio at 24 h [1]: 813 ± 203 | tissue to tissue ratio at 72 h (male, NOD.Cg-Rag1^tm1Mom Il2rg^tm1Wjl/SzJ (NRG), tumor/blood, iv, total radioactivity, 72 h pi, n = 5, read-out: Tumor/blood uptake ratio): 1120 ± 440 | tissue to tissue ratio at 120 h [1]: 1630 ± 548 | tissue to tissue ratio at 1 h (male, NOD.Cg-Rag1^tm1Mom Il2rg^tm1Wjl/SzJ (NRG), tumor/kidney, iv, total radioactivity, blocked (100 µg GRPR antagonist co-injected), read-out: Tumor/kidney uptake ratio): 0.89 ± 0.22 | tissue to tissue ratio at 1 h [2]: 2.65 ± 0.64 | tissue to tissue ratio at 4 h [2]: 2.96 ± 0.3 | tissue to tissue ratio at 24 h [2]: 5.67 ± 1.43 | tissue to tissue ratio at 72 h (male, NOD.Cg-Rag1^tm1Mom Il2rg^tm1Wjl/SzJ (NRG), tumor/kidney, iv, total radioactivity, 72 h pi, n = 5, read-out: Tumor/kidney uptake ratio): 8.43 ± 2.89 | tissue to tissue ratio at 120 h [2]: 14.1 ± 4.53 | tissue to tissue ratio at 1 h (male, NOD.Cg-Rag1^tm1Mom Il2rg^tm1Wjl/SzJ (NRG), tumor/muscle, iv, total radioactivity, blocked (100 µg GRPR antagonist co-injected), read-out: Tumor/muscle uptake ratio): 23.2 ± 5.2 | tissue to tissue ratio at 1 h [3]: 78.3 ± 13 | tissue to tissue ratio at 4 h [3]: 196 ± 53.1 | tissue to tissue ratio at 24 h [3]: 520 ± 113 | tissue to tissue ratio at 72 h (male, NOD.Cg-Rag1^tm1Mom Il2rg^tm1Wjl/SzJ (NRG), tumor/muscle, iv, total radioactivity, 72 h pi, n = 5, read-out: Tumor/muscle uptake ratio): 522 ± 189 | tissue to tissue ratio at 120 h [3]: 744 ± 179 | tissue to tissue ratio at 1 h (male, NOD.Cg-Rag1^tm1Mom Il2rg^tm1Wjl/SzJ (NRG), tumor/pancreas, iv, total radioactivity, blocked (100 µg GRPR antagonist co-injected), read-out: Tumor/pancreas uptake ratio): 6.72 ± 2.24 | tissue to tissue ratio at 1 h [4]: 3.57 ± 0.42 | tissue to tissue ratio at 4 h [4]: 4.91 ± 0.14 | tissue to tissue ratio at 24 h [4]: 5.7 ± 0.81 | tissue to tissue ratio at 72 h (male, NOD.Cg-Rag1^tm1Mom Il2rg^tm1Wjl/SzJ (NRG), tumor/pancreas, iv, total radioactivity, 72 h pi, n = 5, read-out: Tumor/pancreas uptake ratio): 8.37 ± 3.35 | tissue to tissue ratio at 120 h [4]: 17.1 ± 2.1 | tissue uptake at 1 h (PC-3 tumor, 100 ug, blocked (100 µg GRPR antagonist co-injected), read-out: PC-3 tumor uptake): 3.25 ± 0.44 %ID/g | tissue uptake at 1 h [5]: 9.59 ± 3.37 %ID/g | tissue uptake at 4 h [5]: 8.38 ± 0.19 %ID/g | tissue uptake at 24 h [5]: 5.78 ± 0.4 %ID/g | tissue uptake at 72 h (PC-3 tumor, 72 h pi, n = 5, read-out: PC-3 tumor uptake): 2.74 ± 0.85 %ID/g | tissue uptake at 120 h [5]: 2.19 ± 0.59 %ID/g | tissue uptake at 72 h (PC-3 tumor, after 72 h pi, read-out: tumor uptake): < 3 %ID/g | tissue uptake at 1 h (adrenal glands, 100 ug, blocked (100 µg GRPR antagonist co-injected), read-out: Adrenal glands uptake): 0.27 ± 0.06 %ID/g | tissue uptake at 1 h [6]: 0.46 ± 0.15 %ID/g | tissue uptake at 4 h [6]: 0.33 ± 0.15 %ID/g | tissue uptake at 24 h [6]: 0.36 ± 0.3 %ID/g | tissue uptake at 72 h (adrenal glands, 72 h pi, n = 5, read-out: Adrenal glands uptake): 0.13 ± 0.07 %ID/g | tissue uptake at 120 h [6]: 0.1 ± 0.02 %ID/g | tissue uptake at 1 h (blood, 100 ug, blocked (100 µg GRPR antagonist co-injected), read-out: Blood uptake): 0.43 ± 0.23 %ID/g | tissue uptake at 1 h [7]: 0.59 ± 0.18 %ID/g | tissue uptake at 4 h [7]: 0.06 ± 0.02 %ID/g | tissue uptake at 24 h [7]: 0.01 %ID/g | tissue uptake at 1 h (bone, 100 ug, blocked (100 µg GRPR antagonist co-injected), read-out: Bone uptake): 0.12 ± 0.04 %ID/g | tissue uptake at 1 h [8]: 0.23 ± 0.06 %ID/g | tissue uptake at 4 h [8]: 0.1 ± 0.08 %ID/g | tissue uptake at 24 h [8]: 0.02 ± 0.01 %ID/g | tissue uptake at 72 h (bone, 72 h pi, n = 5, read-out: Bone uptake): 0.02 %ID/g | tissue uptake at 120 h [8]: 0.02 %ID/g | tissue uptake at 1 h (brain, 100 ug, blocked (100 µg GRPR antagonist co-injected), read-out: Brain uptake): 0.02 ± 0.01 %ID/g | tissue uptake at 1 h [9]: 0.02 ± 0.01 %ID/g | tissue uptake at 4 h [9]: 0.01 %ID/g | tissue uptake at 1 h (fat, 100 ug, blocked (100 µg GRPR antagonist co-injected), read-out: Fat uptake): 0.06 ± 0.03 %ID/g | tissue uptake at 1 h [10]: 0.08 ± 0.02 %ID/g | tissue uptake at 4 h [10]: 0.02 ± 0.01 %ID/g | tissue uptake at 24 h [10]: 0.01 %ID/g | tissue uptake at 120 h [10]: 0.01 ± 0.01 %ID/g | tissue uptake at 1 h (heart, 100 ug, blocked (100 µg GRPR antagonist co-injected), read-out: Heart uptake): 0.13 ± 0.05 %ID/g | tissue uptake at 1 h [11]: 0.19 ± 0.05 %ID/g | tissue uptake at 4 h [11]: 0.06 ± 0.02 %ID/g | tissue uptake at 24 h [11]: 0.02 %ID/g
